From patent publication US7470684B2, “Spiropiperidine derivatives as NK3 antagonists” (Hoffmann-La Roche Inc., priority 2007, dated 2008) come the findings set out here.

pKi: −log10 of the molar value. Like-named read-outs stand apart in the source and are kept apart here.

The target in the experiment is T1, human NK3 receptor (Homo sapiens, UniProt P29371).
T1 construct: expressed in transfected cells; host or cells: HEK293 cells, transiently transfected; membranes
T1 sequence (P29371 1-465): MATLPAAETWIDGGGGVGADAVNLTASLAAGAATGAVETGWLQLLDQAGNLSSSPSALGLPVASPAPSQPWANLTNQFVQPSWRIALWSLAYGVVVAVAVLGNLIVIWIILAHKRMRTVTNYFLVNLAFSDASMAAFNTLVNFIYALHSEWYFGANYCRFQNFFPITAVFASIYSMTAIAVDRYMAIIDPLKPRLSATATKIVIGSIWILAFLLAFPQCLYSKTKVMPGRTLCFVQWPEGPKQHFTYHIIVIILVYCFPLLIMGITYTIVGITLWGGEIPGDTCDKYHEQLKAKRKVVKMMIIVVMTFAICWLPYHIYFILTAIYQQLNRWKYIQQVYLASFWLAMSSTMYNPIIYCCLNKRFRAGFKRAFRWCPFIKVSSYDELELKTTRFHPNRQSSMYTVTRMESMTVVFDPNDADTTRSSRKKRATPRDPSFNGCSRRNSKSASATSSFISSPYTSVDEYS
The experiment is described as follows: [3H]SR142801 competition binding assay. A digest of the protocol: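 Membranes from HEK293 cells transiently expressing human NK3 receptor incubated 75 min at RT with [3H]SR142801 at its KD and compound (0.0003-10 μM) in pH 7.4 Tris/MnCl2 buffer. Filtration and scintillation counting, nonspecific binding with 10 μM SB222200. IC50 from Hill fit, Ki by Cheng-Prusoff, duplicates.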

Setting [1] is: hNK3 Ki, [3H]SR142801 displacement, membranes of HEK293 cells transiently expressing recombinant human NK3 receptor.
[2] abbreviates: [3H]SR142801 displacement, membranes of HEK293 cells transiently expressing recombinant human NK3 receptor, read-out: hNK3 Ki.

The pKi is −log10 of the Ki, conventionally taken in molar units. In the case of `COc1cc(CN(C)C(=O)C(CCN2CCC3(CC2)OC(=O)N(C)c2ccc(F)cc23)c2ccc(Cl)c(Cl)c2)ccc1OC(F)F` (stereo not drawn) [Example 100, 2-(3,4-dichlorophenyl)-N-[4-(difluoromethoxy)-3-methoxybenzyl]-4-(6-fluoro-1-methyl-2-oxo-1,2-dihydro-1′H-spiro[3,1-benzoxazine-4,4′-piperidin]-1′-yl)-N-methyl-butanamide], the pKi under setting [1] was 8.59.
Regarding `Cc1ccsc1CNC(=O)C(CCCN1CCC2(CC1)OC(=O)Nc1ccc(F)cc12)c1ccc(Cl)c(Cl)c1` (stereo not drawn) [Example 116, 2-(3,4-dichlorophenyl)-5-(6-fluoro-2-oxo-1,2-dihydro-1′H-spiro[3,1-benzoxazine-4,4′-piperidin]-1′-yl)-N-[(3-methyl-2-thienyl)methyl]pentanamide], the pKi under setting [2] was 7.18.
Take `CCN(Cc1ccccc1)C(=O)C(CCN1CCC2(CC1)OC(=O)N(C)c1ccc(F)cc12)c1ccc(Cl)c(Cl)c1` (stereo not drawn) [Example 29, N-benzyl-2-(3,4-dichlorophenyl)-N-ethyl-4-(6-fluoro-1-methyl-2-oxo-1,2-dihydro-1′H-spiro[3,1-benzoxazine-4,4′-piperidin]-1′-yl)-butanamide]: the pKi under setting [1] was 8.17.
As to `Cc1ccc(CNC(=O)C(CCN2CCC3(CC2)OC(=O)Nc2ccc(F)cc23)c2ccc(Cl)c(Cl)c2)o1` (stereo not drawn) [Example 9, 2-(3,4-dichlorophenyl)-4-(6-fluoro-2-oxo-1,2-dihydro-1′H-spiro[3,1-benzoxazine-4,4′-piperidin]-1′-yl)-N-[(5-methyl-2-furyl)methyl]butanamide], the pKi under setting [2] was 7.04.
Turning to `CN(Cc1ccc(N2CCOCC2)cc1)C(=O)C(CCN1CCC2(CC1)OC(=O)N(C)c1ccc(F)cc12)c1ccc(Cl)c(Cl)c1` (stereo not drawn) [Example 95, 2-(3,4-dichlorophenyl)-4-(6-fluoro-1-methyl-2-oxo-1,2-dihydro-1′H-spiro[3,1-benzoxazine-4,4′-piperidin]-1′-yl)-N-methyl-N-(4-morpholin-4-ylbenzyl)butanamide], the pKi under setting [1] is 7.54.
On the same count and under the same terms, as for `CN(Cc1cccc(F)c1)C(=O)C(CCN1CCC2(CC1)OC(=O)N(C)c1ccc(F)cc12)c1ccc(Cl)c(Cl)c1` (stereo not drawn) [Example 101, 2-(3,4-dichlorophenyl)-N-(3-fluorobenzyl)-4-(6-fluoro-1-methyl-2-oxo-1,2-dihydro-1′H-spiro[3,1-benzoxazine-4,4′-piperidin]-1′-yl)-N-methyl-butanamide], the figure is 8.89; as for `O=C1Nc2ccc(F)cc2C2(CCN(CCCC(C(=O)NCc3ccccc3OC(F)(F)F)c3ccc(Cl)c(Cl)c3)CC2)O1` (stereo not drawn) [Example 118, 2-(3,4-dichlorophenyl)-5-(6-fluoro-2-oxo-1,2-dihydro-1′H-spiro[3,1-benzoxazine-4,4′-piperidin]-1′-yl)-N-[2-(trifluoromethoxy)benzyl]pentanamide], 7.19.
In the case of `CN1C(=O)OC2(CCN(CCC(C(=O)N3CCc4ccc(F)cc4C3)c3ccc(Cl)c(Cl)c3)CC2)c2cc(F)ccc21` (stereo not drawn) [Example 38, 1′-[3-(3,4-dichlorophenyl)-4-(7-fluoro-3,4-dihydroisoquinolin-2(1H)-yl)-4-oxobutyl]-6-fluoro-1-methylspiro[3,1-benzoxazine-4,4′-piperidin]-2(1H)-one], the pKi is 7.31.
On to `O=C1Nc2ccc(F)cc2C2(CCN(CCC(C(=O)NCc3cccc(C(F)(F)F)c3)c3ccc(F)cc3)CC2)O1` (stereo not drawn) [Example 61, 4-(6-fluoro-2-oxo-1,2-dihydro-1′H-spiro[3,1-benzoxazine-4,4′-piperidin]-1′-yl)-2-(4-fluorophenyl)-N-[3-(trifluoromethyl)benzyl]butanamide], for which the pKi was 7.05.
Regarding `CN(Cc1cccc(C(F)(F)F)c1)C(=O)C(CCCN1CCC2(CC1)OC(=O)Nc1ccc(F)cc12)c1ccc(Cl)c(Cl)c1` (stereo not drawn) [Example 130, 2-(3,4-dichlorophenyl)-5-(6-fluoro-2-oxo-1,2-dihydro-1′H-spiro[3,1-benzoxazine-4,4′-piperidin]-1′-yl)-N-methyl-N-[3-(trifluoromethyl)benzyl]pentanamide], the pKi under setting [1] was 7.04.
In the case of `CN(Cc1ccccc1)C(=O)C(CCN1CCC2(CC1)OC(=O)Nc1ccc(F)cc12)c1ccc(Cl)c(Cl)c1` (stereo not drawn) [Example 64, N-benzyl-2-(3,4-dichlorophenyl)-4-(6-fluoro-2-oxo-1,2-dihydro-1′H-spiro[3,1-benzoxazine-4,4′-piperidin]-1′-yl)-N-methylbutanamide], the pKi under setting [1] was 7.90.
Still for that read-out and setting: next, `CN1C(=O)OC2(CCN(CCC(C(=O)NCc3ccc(F)cc3)c3ccc(Cl)c(Cl)c3)CC2)c2cc(F)ccc21` (stereo not drawn) [Example 106, 2-(3,4-dichlorophenyl)-N-(4-fluorobenzyl)-4-(6-fluoro-1-methyl-2-oxo-1,2-dihydro-1′H-spiro[3,1-benzoxazine-4,4′-piperidin]-1′-yl)-butanamide]: 8.57.
With `O=C1Nc2ccc(F)cc2C2(CCN(CCCC(C(=O)NCc3ccc(F)cc3)c3ccc(Cl)c(Cl)c3)CC2)O1` (stereo not drawn) [Example 132, 2-(3,4-dichlorophenyl)-N-(4-fluorobenzyl)-5-(6-fluoro-2-oxo-1,2-dihydro-1′H-spiro[3,1-benzoxazine-4,4′-piperidin]-1′-yl)-pentanamide], the negative logarithm of the Ki (pKi) was 7.18.
With `COc1cc(CN(C)C(=O)C(CCN2CCC3(CC2)OC(=O)Nc2ccc(F)cc23)c2ccc(Cl)c(Cl)c2)ccc1OC(F)F` (stereo not drawn) [Example 75, 2-(3,4-dichlorophenyl)-N-[4(difluoromethoxy)-3-methoxybenzyl]4-(6-fluoro-2-oxo-1,2-dihydro-1′H-spiro[3,1-benzoxazine-4,4′-piperidin]-1′-yl)-N-methylbutanamide], the pKi under setting [1] is 8.11.
Take `O=C1Nc2ccc(F)cc2C2(CCN(CCC(C(=O)NCc3ccccc3OC(F)(F)F)c3ccc(F)cc3)CC2)O1` (stereo not drawn) [Example 49, 4-(6-fluoro-2-oxo-1,2-dihydro-1′H-spiro[3,1-benzoxazine-4,4′-piperidin]-1′-yl)-2-(4-fluorophenyl)-N-[2-(trifluoromethoxy)benzyl]butanamide]: the pKi under setting [1] was 7.04.
In the case of `CN(Cc1ccccc1Cl)C(=O)C(CCN1CCC2(CC1)OC(=O)Nc1ccc(F)cc12)c1ccc(F)cc1` (stereo not drawn) [Example 27, N-(2-chlorobenzyl)-4-(6-fluoro-2-oxo-1,2-dihydro-1′H-spiro[3,1-benzoxazine-4,4′-piperidin]-1′-yl)-2-(4-fluorophenyl)-N-methylbutanamide], under setting [1], the pKi is 7.41.
Still for that read-out and setting: as for `CN(Cc1ccc(F)cc1)C(=O)C(CCN1CCC2(CC1)OC(=O)N(C)c1ccc(F)cc12)c1ccc(Cl)c(Cl)c1` (stereo not drawn) [Example 105, 2-(3,4-dichlorophenyl)-N-(4-fluorobenzyl)-4-(6-fluoro-1-methyl-2-oxo-1,2-dihydro-1′H-spiro[3,1-benzoxazine-4,4′-piperidin]-1′-yl)-N-methyl-butanamide], the figure is 9.00.
As to `CN1C(=O)OC2(CCN(CCC(C(=O)NCc3ccc(Cl)cc3)c3ccc(Cl)c(Cl)c3)CC2)c2cc(F)ccc21` (stereo not drawn) [Example 34, N-(4-chlorobenzyl)-2-(3,4-dichlorophenyl)-4-(6-fluoro-1-methyl-2-oxo-1,2-dihydro-1′H-spiro[3,1-benzoxazine-4,4′piperidin]-1′-yl)-butanamide], the pKi under setting [1] was 8.48.
